From US12637471B2, “Heterocyclic compounds, compositions, methods of preparation and uses thereof” (Organon R&D Finland Ltd, priority 2021, dated 2026)

Assays:
Assay type in all cases: biochemical
[1] = target: T1, 17β-Hydroxysteroid Dehydrogenase Type 2 Enzyme (17β-HSD2) (Homo sapiens, UniProt P37059); experiment: Inhibition of the 17β-hydroxysteroid dehydrogenase type 2 enzyme, 3H-testosterone conversion; conditions: inhibitor at 10 μM
T1 construct: made in house; host or cells: Sf-9 insect cells (baculovirus)
T1 sequence (P37059 1-387): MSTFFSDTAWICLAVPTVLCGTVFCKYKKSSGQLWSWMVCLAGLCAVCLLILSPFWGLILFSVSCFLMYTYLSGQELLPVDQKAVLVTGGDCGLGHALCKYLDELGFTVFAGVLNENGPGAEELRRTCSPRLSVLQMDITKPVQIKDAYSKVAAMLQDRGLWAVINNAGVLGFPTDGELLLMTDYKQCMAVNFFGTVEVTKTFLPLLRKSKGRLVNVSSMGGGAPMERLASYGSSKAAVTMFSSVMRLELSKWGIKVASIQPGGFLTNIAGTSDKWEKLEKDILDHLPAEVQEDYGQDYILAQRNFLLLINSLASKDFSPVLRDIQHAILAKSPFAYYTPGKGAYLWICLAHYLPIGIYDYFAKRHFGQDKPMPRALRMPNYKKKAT
Method in brief: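 Single-point screen at 10 μM inhibitor, 1% DMSO: Sf-9-expressed human enzyme (105 nM), NAD 1 mM, ³H-labelled testosterone 56.25 nM, pH 8.5 phosphate/EDTA buffer, 30 min, room temperature. After TCA quench, substrate and product radioactivity quantified by UPLC with scintillation detection; inhibition percent from conversion.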

[2] = target: T2, Recombinant human aldo-keto reductase family 1 member C2 (AKR1C2) protein (Homo sapiens, UniProt P52895); experiment: Inhibition of the aldo-keto reductase family 1 member C2, 3H-dihydrotestosterone conversion; conditions: inhibitor at 10 μM
T2 construct: made in house; host or cells: Sf-9 insect cells (baculovirus)
T2 sequence (P52895 1-323): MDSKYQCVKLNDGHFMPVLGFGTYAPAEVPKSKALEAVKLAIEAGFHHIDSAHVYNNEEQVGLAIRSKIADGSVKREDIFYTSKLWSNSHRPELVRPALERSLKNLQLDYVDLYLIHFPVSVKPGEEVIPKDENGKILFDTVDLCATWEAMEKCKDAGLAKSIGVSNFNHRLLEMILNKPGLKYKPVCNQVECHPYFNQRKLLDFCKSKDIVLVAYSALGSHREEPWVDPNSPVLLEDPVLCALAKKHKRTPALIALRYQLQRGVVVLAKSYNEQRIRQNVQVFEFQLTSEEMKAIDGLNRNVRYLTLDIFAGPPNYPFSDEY
Method in brief: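 Single-point screen at 10 μM inhibitor, 1% DMSO: [3H]DHT (6.25 nM) reduction to 3α-diol by baculovirus-made AKR1C2 (13.6 nM), pH 7.4 phosphate buffer, 1 mM NADPH, 37 °C for 45 min. Radio-UPLC quantified product versus substrate to give percent inhibition.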

[3] = target: T3, Recombinant human AKR1C3 (17β-HSD5) protein (Homo sapiens, UniProt P42330); experiment: Inhibition of AKR1C3 (17β-hydroxysteroid dehydrogenase type 5) enzyme, fluorescence assay; conditions: inhibitor at 500 nM
T3 construct: made in house; host or cells: E. coli
T3 sequence (P42330 1-323): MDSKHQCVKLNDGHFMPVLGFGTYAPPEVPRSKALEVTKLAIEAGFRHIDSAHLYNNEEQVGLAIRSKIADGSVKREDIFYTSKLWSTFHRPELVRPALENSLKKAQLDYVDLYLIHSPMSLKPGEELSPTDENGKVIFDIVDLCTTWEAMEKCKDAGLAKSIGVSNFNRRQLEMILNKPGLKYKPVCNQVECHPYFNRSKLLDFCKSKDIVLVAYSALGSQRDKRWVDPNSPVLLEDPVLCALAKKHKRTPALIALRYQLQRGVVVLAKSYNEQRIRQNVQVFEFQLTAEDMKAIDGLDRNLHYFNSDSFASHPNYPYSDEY
Method in brief: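 Percent inhibition at 500 nM compound, derived from substrate conversion; product alcohol measured by fluorescence (ex 420, em 510 nm) against a 1 μM–10 nM standard curve. Reaction: 27 nM recombinant AKR1C3, 1 μM ketone substrate, 1 mM NADPH, phosphate/EDTA buffer pH 7.4, 1% DMSO, RT for 60–120 min.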

Structure (SMILES) | inhibition at 10 µM [1] | inhibition at 10 µM [2] | inhibition at 0.5 µM [3]
N#CC(=C1CCN(C(=O)N2CCc3[nH]ncc3C2)CC1)c1cc(F)cc(F)c1 [Compound 116, 2-(3,5-difluorophenyl)-2-(1-(4,5,6,7-tetrahydro-1H-pyrazolo[4,3-c]pyridine-5-carbonyl)piperidin-4-ylidene)acetonitrile] | 12% | 26% | 98%
N#CC(=C1CCN(C(=O)N2CCc3sccc3C2)CC1)c1ccc(OC(F)(F)F)cc1 [Compound 117, 2-(1-(4,5,6,7-tetrahydrothieno[3,2-c]pyridine-5-carbonyl)piperidin-4-ylidene)-2-(4-(trifluoromethoxy)phenyl)acetonitrile] | 22% | 7% | 94%
Cn1ncc2cccc(C(C#N)=C3CCN(C(=O)N4CCC(CO)CC4)CC3)c21 [Compound 118, 2-(1-(4-(hydroxymethyl)piperidine-1-carbonyl)piperidin-4-ylidene)-2-(1-methyl-1H-indazol-7-yl)acetonitrile] | 30% | 14% | 96%
Cn1ncc2cccc(C(C#N)=C3CCN(C(=O)N4CCc5[nH]ncc5C4)CC3)c21 [Compound 119, 2-(1-methyl-1H-indazol-7-yl)-2-(1-(4,5,6,7-tetrahydro-1H-pyrazolo[4,3-c]pyridine-5-carbonyl)piperidin-4-ylidene)acetonitrile] | 15% | 6% | 99%
N#CC(=C1CCN(C(=O)N2CCc3[nH]ncc3C2)CC1)c1ccc(Cl)s1 [Compound 120, 2-(5-chlorothiophen-2-yl)-2-(1-(4,5,6,7-tetrahydro-1H-pyrazolo[4,3-c]pyridine-5-carbonyl)piperidin-4-ylidene)acetonitrile] | 20% | 43% | 99%
N#CC(=C1CCN(C(=O)N2CCn3cncc3C2)CC1)c1ccc(Cl)s1 [Compound 121, 2-(5-chlorothiophen-2-yl)-2-(1-(5,6,7,8-tetrahydroimidazo[1,5-a]pyrazine-7-carbonyl)piperidin-4-ylidene)acetonitrile] | -7% | 32% | 99%
N#CC(=C1CCN(C(=O)N2CCc3[nH]ncc3C2)CC1)c1ccc(F)cc1F [Compound 122, 2-(2,4-difluorophenyl)-2-(1-(4,5,6,7-tetrahydro-1H-pyrazolo[4,3-c]pyridine-5-carbonyl)piperidin-4-ylidene)acetonitrile] | 24% | 42% | 99%
N#CC(=C1CCN(C(=O)N2CCn3cncc3C2)CC1)c1ccc(F)cc1F [Compound 123, 2-(2,4-difluorophenyl)-2-(1-(5,6,7,8-tetrahydroimidazo[1,5-a]pyrazine-7-carbonyl)piperidin-4-ylidene)acetonitrile] | 2% | 33% | 99%
CC(O)C1CCN(C(=O)N2CCC(=C(C#N)c3ccc(OC(F)(F)F)cc3)CC2)CC1 (stereo not drawn) [Compound 124, 2-(1-(4-(1-hydroxyethyl)piperidine-1-carbonyl)piperidin-4-ylidene)-2-(4-(trifluoromethoxy)phenyl)acetonitrile] | 9% | 4% | 91%
CCOC1CCN(C(=O)N2CCC(=C(C#N)c3ccc(Cl)s3)CC2)CC1 [Compound 125, 2-(5-chlorothiophen-2-yl)-2-(1-(4-ethoxypiperidine-1-carbonyl)piperidin-4-ylidene)acetonitrile] | 17% | 18% | 97%
N#CC(=C1CCN(C(=O)N2CCC(S(N)(=O)=O)CC2)CC1)c1ccc(Cl)cc1 [Compound 126, 1-(4-((4-chlorophenyl)(cyano)methylene)piperidine-1-carbonyl)piperidine-4-sulfonamide] | 2% | 10% | 97%
N#CC(=C1CCN(C(=O)N2CCC(O)CC2)CC1)c1ccc(C(F)(F)F)cc1 [Compound 127, 2-(1-(4-hydroxypiperidine-1-carbonyl)piperidin-4-ylidene)-2-(4-(trifluoromethyl)phenyl)acetonitrile] | 5% | -6% | 96%
CCOC1CCN(C(=O)N2CCC(=C(C#N)c3ccc(C(F)(F)F)cc3)CC2)CC1 [Compound 128, 2-(1-(4-ethoxypiperidine-1-carbonyl)piperidin-4-ylidene)-2-(4-(trifluoromethyl)phenyl) acetonitrile] | 17% | 2% | 93%
CCOC1CCN(C(=O)N2CCC(=C(C#N)c3cccc(Cl)c3)CC2)CC1 [Compound 129, 2-(3-chlorophenyl)-2-(1-(4-ethoxypiperidine-1-carbonyl)piperidin-4-ylidene)acetonitrile] | 5% | 11% | 98%
CC(=O)N1CCN(C(=O)N2CCC(=C(C#N)c3ccc(Cl)cc3)CC2)CC1 [Compound 130, 2-(1-(4-acetylpiperazine-1-carbonyl)piperidin-4-ylidene)-2-(4-chlorophenyl)acetonitrile] | 12% | 0% | 97%
N#CC(=C1CCN(C(=O)N2CCC(CCO)CC2)CC1)c1ccc(Cl)cc1 [Compound 131, 2-(4-chlorophenyl)-2-(1-(4-(2-hydroxyethyl)piperidine-1-carbonyl)piperidin-4-ylidene) acetonitrile] | 13% | 8% | 98%
N#CC(=C1CCN(C(=O)N2CCC(CCCO)CC2)CC1)c1ccc(Cl)cc1 [Compound 132, 2-(4-chlorophenyl)-2-(1-(4-(3-hydroxypropyl)piperidine-1-carbonyl)piperidin-4-ylidene)acetonitrile] | 17% | 8% | 95%
CC(C)OC1CCN(C(=O)N2CCC(=C(C#N)c3ccc(Cl)cc3)CC2)CC1 [Compound 133, 2-(4-chlorophenyl)-2-(1-(4-isopropoxypiperidine-1-carbonyl)piperidin-4-ylidene)acetonitrile] | 23% | 16% | 97%
CCCOC1CCN(C(=O)N2CCC(=C(C#N)c3ccc(Cl)cc3)CC2)CC1 [Compound 134, 2-(4-chlorophenyl)-2-(1-(4-propoxypiperidine-1-carbonyl)piperidin-4-ylidene)acetonitrile] | 12% | 13% | 98%
N#CC(=C1CCN(C(=O)N2CCC(C(F)(F)F)CC2)CC1)c1ccc(Cl)cn1 [Compound 135, 2-(5-chloropyridin-2-yl)-2-(1-(4-(trifluoromethyl)piperidine-1-carbonyl)piperidin-4-ylidene)acetonitrile] | 4% | 3% | 92%
Cn1ncc2cccc(C(C#N)=C3CCN(C(=O)N4CCc5nocc5C4)CC3)c21 [Compound 136, 2-(1-methyl-1H-indazol-7-yl)-2-(1-(4,5,6,7-tetrahydroisoxazolo[4,3-c]pyridine-5-carbonyl)piperidin-4-ylidene)acetonitrile] | 26% | 6% | 99%
